How the values were obtained:
[1] = human
[2] = human, serum, 4383 h
[3] = human; remark: listed apart in the source
[4] = Highest frequency of acute liver toxicity observed during clinical trials, expressed as a percentage. [column '% AIGUE' in source]; conditions: human
[5] = human, serum
[6] = Highest frequency of moderate liver toxicity observed during clinical trials, expressed as a percentage. [column '% BIOL' in source]; conditions: human
[7] = human, serum; remark: listed apart in the source
[8] = human; remark: listed apart in the source
[9] = human; remark: listed apart in the source
[10] = human; remark: listed apart in the source
[11] = human; remark: listed apart in the source
[12] = human; remark: listed apart in the source
[13] = human; remark: listed apart in the source
[14] = human; remark: listed apart in the source
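Throughout, for Hepatotoxicity (association with vascular disease): count of indexed literature references reporting vascular liver injury in humans, e.g. peliosis hepatitis, hepatic veno-occlusive disease or Budd-Chiari syndrome.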
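Throughout, for Hepatotoxicity (benign tumour): value is a count of indexed literature references citing a benign tumour confirmed by histopathology.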
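Throughout, for Hepatotoxicity (choleostasis): human cholestatic liver injury, shown by histopathology or by peak ALT or AST elevation over alkaline phosphatase ratio below 2, value counts indexed literature reports.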
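Throughout, for Hepatotoxicity (chronic liver disease): chronic liver injury confirmed by histopathology or persistently raised serum aminotransferase activity beyond 6 months, value given as the count of indexed literature references.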
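Throughout, for Hepatotoxicity (cirrhosis): value is a count of indexed literature references reporting cirrhosis confirmed by histopathology.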
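Throughout, for Hepatotoxicity (cytolytic): human cytolytic liver injury, shown by histopathology or by a ratio above 5 of peak ALT or AST elevation to alkaline phosphatase elevation, value counts indexed references.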
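Throughout, for Hepatotoxicity (granulomatous hepatitis): value is a count of indexed literature references reporting granulomatous liver disease confirmed by histopathology.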
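Throughout, for Hepatotoxicity (malignant tumour): malignant tumour confirmed by histopathology, value gives the count of indexed literature references reporting it.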
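Throughout, for Hepatotoxicity (severe hepatitis): human clinical data: severe hepatitis, meaning potentially life-threatening liver failure or clinically observed cases, the value counts how many indexed literature references report it.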
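Throughout, for Hepatotoxicity (steatosis): steatosis confirmed by histopathology, value is the count of indexed references.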

SMILES	Hepatotoxicity (steatosis) [1]	Hepatotoxicity (chronic liver disease) [2]	Hepatotoxicity (cirrhosis) [3]	Hepatotoxicity (acute) ([4]; Liver) [%]	Hepatotoxicity (moderate) [5]	Hepatotoxicity (moderate) ([6]; Liver) [%]	Hepatotoxicity (acute) [7]	Hepatotoxicity (granulomatous hepatitis) ([8]; Liver)	Hepatotoxicity (malignant tumour) [9]	Hepatotoxicity (cytolytic) ([10]; Liver)	Hepatotoxicity (severe hepatitis) ([11]; Liver)	Hepatotoxicity (choleostasis) ([12]; Liver)	Hepatotoxicity (association with vascular disease) [13]	Hepatotoxicity (benign tumour) [14]	Hepatotoxicity (acute) [4] [%]	Hepatotoxicity (moderate) [6] [%]	Hepatotoxicity (granulomatous hepatitis) [8]	Hepatotoxicity (cytolytic) [10]	Hepatotoxicity (severe hepatitis) [11]	Hepatotoxicity (choleostasis) [12]
NC(CO)(CO)CO [TROMETHAMINE]	0	0	0	0	0	0	2	0	0	2	2	0	0	0						
CCCC[C@@H]1CC(=O)[C@]2(O)O[C@@H]3[C@@H](NC)[C@@H](O)[C@@H](NC)[C@H](O)[C@H]3O[C@@H]2O1 [TROSPECTOMYCIN]	0	0	0		2		0		0				0	0	0	33.3	0	0	0	0
CC(C)C[C@H](NC(=O)[C@@H](O)[C@H](N)Cc1ccccc1)C(=O)O [UBENIMEX]	0	0	0		1		0		0				0	0	0	2.4	0	0	0	0
CC(C)[C@H](N)C(=O)OCC(CO)OCn1cnc2c(=O)nc(N)[nH]c21 (stereo not given in full) [VALGANCICLOVIR]	0	0	0		1		0		0				0	0	0	3	0	0	0	0
COc1ccc(C(=O)N2CCN(c3ccc4c(c3)CCC(=O)N4)CC2)cc1OC [VESNARINONE]	0	0	0		1		0		0				0	0	0	0.4	0	0	0	0

From ChEMBL document CHEMBL3137667, “[Drug-induced liver injury; fourteenth updated edition of the bibliographic database of liver injuries and related drugs]” (Gastroenterol Clin Biol, 2004)
